Data reported in PubChem BioAssay AID1963436 (Molecular Pharmacology Branch, DTP, NCI, 2024).

System: OVCAR-5 complex spheroid (HUVEC/MSC), viability % T/C
Experiment: Anticancer human tumor OVCAR-5 cell line growth inhibition [Asc];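 also: spheroids exposed to agents for 7 days before readout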;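 as to viability, T/C: 100% = DMSO vehicle-treated wells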
Conditions: for IC50: curve of first compound; for viability, T/C: stronger effect = lower value
Outline: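 Complex spheroids combining tumor cells with HUVEC endothelial cells and human MSCs, at 37 degrees C, 5% CO2; agents tested alone or combined, half-log dilutions from at or near clinical Cmax, or 10 microM if Cmax unknown.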

## CCN1CCN(Cc2ccc(Nc3ncc(F)c(-c4cc(F)c5nc(C)n(C(C)C)c5c4)n3)nc2)CC1 + CCN1C(C(=O)NC23CCC(C(=O)O)(CC2)CC3)C(c2cccc(Cl)c2F)C2(C(=O)Nc3cc(Cl)ccc32)C12CCCCC2
Second compound 0.03 µM
  IC50: > 1 µM
Second compound 0.0949 µM
  IC50: > 1 µM
Second compound 0.3 µM
  IC50: > 1 µM
Second compound 0.949 µM
  IC50: > 1 µM
Second compound 3 µM
  IC50: > 1 µM
Second compound 0.03 µM, first compound 0.00316 µM
  viability, T/C: 85.1%
Second compound 0.03 µM, first compound 0.01 µM
  viability, T/C: 93.5%
Second compound 0.03 µM, first compound 0.0316 µM
  viability, T/C: 68.1%
Second compound 0.03 µM, first compound 0.1 µM
  viability, T/C: 64.7%
Second compound 0.03 µM, first compound 0.316 µM
  viability, T/C: 65.4%
Second compound 0.03 µM, first compound 1 µM
  viability, T/C: 56.5%
Second compound 0.0949 µM, first compound 0.00316 µM
  viability, T/C: 98.2%
Second compound 0.0949 µM, first compound 0.01 µM
  viability, T/C: 91.8%
Second compound 0.0949 µM, first compound 0.0316 µM
  viability, T/C: 67.2%
Second compound 0.0949 µM, first compound 0.1 µM
  viability, T/C: 66.1%
Second compound 0.0949 µM, first compound 0.316 µM
  viability, T/C: 61%
Second compound 0.0949 µM, first compound 1 µM
  viability, T/C: 62.8%
Second compound 0.3 µM, first compound 0.00316 µM
  viability, T/C: 102%
Second compound 0.3 µM, first compound 0.01 µM
  viability, T/C: 86.5%
Second compound 0.3 µM, first compound 0.0316 µM
  viability, T/C: 77.7%
Second compound 0.3 µM, first compound 0.1 µM
  viability, T/C: 59.9%
Second compound 0.3 µM, first compound 0.316 µM
  viability, T/C: 68.3%
Second compound 0.3 µM, first compound 1 µM
  viability, T/C: 62.4%
Second compound 0.949 µM, first compound 0.00316 µM
  viability, T/C: 85.9%
Second compound 0.949 µM, first compound 0.01 µM
  viability, T/C: 92.3%
Second compound 0.949 µM, first compound 0.0316 µM
  viability, T/C: 74.2%
Second compound 0.949 µM, first compound 0.1 µM
  viability, T/C: 65.1%
Second compound 0.949 µM, first compound 0.316 µM
  viability, T/C: 69.1%
Second compound 0.949 µM, first compound 1 µM
  viability, T/C: 62.4%
Second compound 3 µM, first compound 0.00316 µM
  viability, T/C: 106%
Second compound 3 µM, first compound 0.01 µM
  viability, T/C: 99.1%
Second compound 3 µM, first compound 0.0316 µM
  viability, T/C: 85.4%
Second compound 3 µM, first compound 0.1 µM
  viability, T/C: 65.6%
Second compound 3 µM, first compound 0.316 µM
  viability, T/C: 65.5%
Second compound 3 µM, first compound 1 µM
  viability, T/C: 64.2%

## CCN1C(C(=O)NC23CCC(C(=O)O)(CC2)CC3)C(c2cccc(Cl)c2F)C2(C(=O)Nc3cc(Cl)ccc32)C12CCCCC2 (stereo not given) + Cc1c(S(C)(=O)=O)c(-c2cc(F)cc(N3CCN(c4ccc(NS(=O)(=O)c5ccc(NC(CCN6CCC(C(=O)OCCCP(=O)(O)O)CC6)CSc6ccccc6)c(S(=O)(=O)C(F)(F)F)c5)cc4)CC3)c2)c(-c2ccc(Cl)cc2)n1C(C)C
Second compound 0.1 µM
  IC50: > 3 µM
Second compound 0.316 µM
  IC50: > 3 µM
Second compound 1 µM
  IC50: > 3 µM
Second compound 3.16 µM
  IC50: > 3 µM
Second compound 10 µM
  IC50: > 3 µM
Second compound 0.1 µM, first compound 0.00949 µM
  viability, T/C: 102%
Second compound 0.1 µM, first compound 0.03 µM
  viability, T/C: 93.8%
Second compound 0.1 µM, first compound 0.0949 µM
  viability, T/C: 93.1%
Second compound 0.1 µM, first compound 0.3 µM
  viability, T/C: 86.9%
Second compound 0.1 µM, first compound 0.949 µM
  viability, T/C: 97.3%
Second compound 0.1 µM, first compound 3 µM
  viability, T/C: 92.5%
Second compound 0.316 µM, first compound 0.00949 µM
  viability, T/C: 86.3%
Second compound 0.316 µM, first compound 0.03 µM
  viability, T/C: 101%
Second compound 0.316 µM, first compound 0.0949 µM
  viability, T/C: 90.2%
Second compound 0.316 µM, first compound 0.3 µM
  viability, T/C: 82.8%
Second compound 0.316 µM, first compound 0.949 µM
  viability, T/C: 91.3%
Second compound 0.316 µM, first compound 3 µM
  viability, T/C: 83.3%
Second compound 1 µM, first compound 0.00949 µM
  viability, T/C: 88%
Second compound 1 µM, first compound 0.03 µM
  viability, T/C: 85.5%
Second compound 1 µM, first compound 0.0949 µM
  viability, T/C: 88.5%
Second compound 1 µM, first compound 0.3 µM
  viability, T/C: 86.9%
Second compound 1 µM, first compound 0.949 µM
  viability, T/C: 75.4%
Second compound 1 µM, first compound 3 µM
  viability, T/C: 83%
Second compound 3.16 µM, first compound 0.00949 µM
  viability, T/C: 84.7%
Second compound 3.16 µM, first compound 0.03 µM
  viability, T/C: 92.4%
Second compound 3.16 µM, first compound 0.0949 µM
  viability, T/C: 97.4%
Second compound 3.16 µM, first compound 0.3 µM
  viability, T/C: 78.7%
Second compound 3.16 µM, first compound 0.949 µM
  viability, T/C: 74.1%
Second compound 3.16 µM, first compound 3 µM
  viability, T/C: 69.3%
Second compound 10 µM, first compound 0.00949 µM
  viability, T/C: 114%
Second compound 10 µM, first compound 0.03 µM
  viability, T/C: 122%
Second compound 10 µM, first compound 0.0949 µM
  viability, T/C: 126%
Second compound 10 µM, first compound 0.3 µM
  viability, T/C: 111%
Second compound 10 µM, first compound 0.949 µM
  viability, T/C: 102%
Second compound 10 µM, first compound 3 µM
  viability, T/C: 89.8%
